The text below walks through data of US20210386705A1, “APPLICATION OF CHIGLITAZAR AND RELATED COMPOUNDS THEREOF” (SHENZHEN CHIPSCREEN BIOSCIENCES CO., LTD., priority 2018, published 2021).

Where “and” joins values, the source holds several entries; their conditions need not be identical. Identical values can stand only once.

What all share (type): cell-based, human
In assay [1] the test system is monocytic cell line THP-1. The assay is described as follows: MCP-1-induced chemotaxis of THP-1 cells (Transwell). The settings on record: MCP-1 10 ng/mL, compound 3 μmol/L; for Cell concentration in lower chamber, Mean value / Cell concentration in lower chamber, single replicates: 24 hours pretreatment, 4 hours migration; for Migration rate: solvent control + MCP-1 = 100. The text has this:
In an in vitro model, migration of the monocytic cell line THP-1 induced by a certain concentration of chemokines (such as monocyte chemotactic protein 1, MCP-1), and accordingly such in vivo process was mimicked. Transwell technology, according to the manufacturer's instructions from Corning Inc., is considered that Traswell is a kind of a polycarbonate membrane filter as well as a permeable holder. The polycarbonate membrane divides a culture chamber into upper and lower ones, where the components of the culture medium in the lower chamber can affect the growth, differentiation and movement of the cells in upper chamber. Finally, the cell migration ability can be reflected by staining and counting the cells in the lower chamber.
When cultured to the log phase stage, THP-1 cells were resuspended, adjusted the concentration, and seeded in 24-well plates, followed by being pretreated with the culture media containing the compound to be tested (sodium chiglitazar) or the reference compound GFT505, pioglitazone, or PPARγ single agonist rosiglitazone (all purchased from Selleck) for 24 hours. Transwells were used according to the manufacturer's instructions. The culture media containing chemokine MCP-1 were added to the lower chamber (i.e., the bottom of the 24-well plates), and the cell suspension was added to the upper chamber and cultured for 4 hours. Later, the cells cultured on the “ceiling” surface of the polycarbonate membrane were fixed and stained with crystal violet solution (FIG. 6), and then the number of cells in the lower chamber was counted (Table 3).

The test system of assay [2] is α-smooth muscle actin (α-SMA). Description: TGF-β1-activated hepatic stellate cells, α-SMA gene expression (qPCR). The note with it: TGF-β1 stimulation, 24 hours; FIG. 4. As to the method: Human primary hepatic stellate cells were seeded into 6-well plates with complete growth media (Stellate Cell Medium) for 24 hours, and then the culture media were replaced by fresh media (free of serum and growth factors) containing TGF-β1 and the compound to be tested (sodium chiglitazar) or the reference compound PPARγ/α dual agonist pioglitazone or PPARα/δ dual agonist GFT505 (both purchased from Selleck), and the cells were cultured for 24 hours. The total RNAs of the samples were extracted, and reverse transcription reaction was performed. Thereafter, a conventional PCR amplification kit (FastStart Universal SYBR@ Green Master (ROX), Roche) was used for further detection, where the PCR primers were designed with reference to the NCBI standard mRNA sequence of the target genes (Table 2). PCR reaction and detection were carried out on the ABI StepOnePlus real-time quantitative PCR instrument. By calculating the relative amount of transcripts was calculate by “Delta-Delta CT method” (Livak et al. Methods 2001), and using ACTB as the housekeeping gene for normalization and the average data of untreated human hepatic stellate cells as a reference control, the relative change folds of gene expression were obtained (FIG. 4).
Background: Real-time PCR tracks product formation cycle by cycle.

In a further assay the test system is THP-1 cells. Description: Inflammatory factor gene expression (MCP-1, TNFα) in PMA-activated THP-1 cells (qPCR). The settings on record: 6 hours, FIG. 5. As to the method:
Human acute monocytic leukemia mononuclear cell line (THP-1) cells were activated by a certain concentration of phorbol esters (Phorbol-12-myristate-13-acetate, PMA) and differentiated into macrophages. Through this cell model, the activating effects of sodium chiglitazar and other compounds on the expression of THP-1 related inflammatory factors were detected.
THP-1 cells were seeded into 6-well plates with complete growth media for 24 hours, and then the culture media were replaced by fresh media containing PMA and the compound to be tested (sodium chiglitazar) or the reference compound GFT505 (PPARα/δ dual agonist), and the cells were cultured for 6 hours. The total RNAs of the samples were extracted, and cDNA templates were synthesized by reverse transcription reaction (Transcriptor First Strand cDNA Synthesis Kit, Roche). Thereafter, a conventional PCR amplification kit (FastStart Universal SYBR@ Green Master (ROX), Roche) was used for semi-quantitative gene expression detection on the ABI StepOnePlus real-time quantitative PCR instrument.
The relative expression change of the target genes was obtained by using the internal reference β-actin gene (ACTB) as the standard for normalization, compared with the untreated cell samples, and the relative expression change folds were calculated (FIG. 5).

Turning to `CSc1ccc(C(=O)/C=C/c2cc(C)c(OC(C)(C)C(=O)O)c(C)c2)cc1` [GFT505], in assay [1], the “Cell concentration in lower chamber, Mean value” is 28175 cells/ml; the “Cell concentration in lower chamber, single replicates” value is 28443 cells/ml and 28511 cells/ml and 27572 cells/ml; the Migration rate is reported as 102.55%. In assay [2], the “Effect on expression of α-smooth muscle actin” value is given as “a certain inhibitory effect”. For the same compound, in the assay with THP-1 cells, the “Inhibition of phorbol esters-mediated activation of monocyte and related gene expression” value was “significantly inhibit”.
Take `CCc1ccc(CCOc2ccc(CC3SC(=O)NC3=O)cc2)nc1` (stereo not drawn) [pioglitazone]: in assay [1], the “Cell concentration in lower chamber, Mean value” came to 17514 cells/ml; the “Cell concentration in lower chamber, single replicates” value is 17529 cells/ml and 17416 cells/ml and 17597 cells/ml; the Migration rate worked out at 61.80%. The “Effect on expression of α-smooth muscle actin” value in assay [2] was “no effect”.
